Source: patent US11597727B2 (THE REGENTS OF THE UNIVERSITY OF CALIFORNIA, priority 2018, dated 2023)

Target: T1, integrin α2β1 (Homo sapiens, UniProt P05556+P17301)
Assay: HT 1080 cell adhesion assay on rat tail collagen I
Assay type: cell-based
Set-up: HT1080 (human fibrosarcoma) cells (or human airway smooth muscle cells) were detached and resuspended in serum-free DMEM; endogenous in cells; host or cells: HT1080 human fibrosarcoma cells
Details: HT1080 (human fibrosarcoma) cells on rat tail collagen I, absorbance at 595 nm, triplicate; read-out: IC50s from HT 1080 Cell adhesion assay
Experimental: (§1) Cell adhesion Assay: Ninety-six-well flat-bottomed tissue culture plates were coated with rat tail collagen I for 1 hour at 37° C. After incubation, wells were blocked with 1% BSA at 37° C. for 1 hour. Control wells were filled with 1% BSA. HT1080 (human fibrosarcoma) cells (or human airway smooth muscle cells) were detached and resuspended in serum-free DMEM. Cells were incubated with anti-integrin alpha2 antibody control or 10-fold dilutions of each compound with a starting concentration of 10 uM for 15 minutes at 4° C. before plating. The plates were centrifuged at 10 g for 5 minutes before incubation for 1 hour at 37° C. in humidified 5% CO2. Nonadherent cells were removed by centrifugation (top side down) at 10 g for 5 minutes. Attached cells were stained with 0.5% crystal violet, and the wells were washed with PBS. The relative number of cells in each well was evaluated after solubilization in 40 μl of 2% Triton X-100 by measuring absorbance at 595 nm in a microplate reader. All determinations were carried out in triplicate.

T1 sequence (P17301 30-1181): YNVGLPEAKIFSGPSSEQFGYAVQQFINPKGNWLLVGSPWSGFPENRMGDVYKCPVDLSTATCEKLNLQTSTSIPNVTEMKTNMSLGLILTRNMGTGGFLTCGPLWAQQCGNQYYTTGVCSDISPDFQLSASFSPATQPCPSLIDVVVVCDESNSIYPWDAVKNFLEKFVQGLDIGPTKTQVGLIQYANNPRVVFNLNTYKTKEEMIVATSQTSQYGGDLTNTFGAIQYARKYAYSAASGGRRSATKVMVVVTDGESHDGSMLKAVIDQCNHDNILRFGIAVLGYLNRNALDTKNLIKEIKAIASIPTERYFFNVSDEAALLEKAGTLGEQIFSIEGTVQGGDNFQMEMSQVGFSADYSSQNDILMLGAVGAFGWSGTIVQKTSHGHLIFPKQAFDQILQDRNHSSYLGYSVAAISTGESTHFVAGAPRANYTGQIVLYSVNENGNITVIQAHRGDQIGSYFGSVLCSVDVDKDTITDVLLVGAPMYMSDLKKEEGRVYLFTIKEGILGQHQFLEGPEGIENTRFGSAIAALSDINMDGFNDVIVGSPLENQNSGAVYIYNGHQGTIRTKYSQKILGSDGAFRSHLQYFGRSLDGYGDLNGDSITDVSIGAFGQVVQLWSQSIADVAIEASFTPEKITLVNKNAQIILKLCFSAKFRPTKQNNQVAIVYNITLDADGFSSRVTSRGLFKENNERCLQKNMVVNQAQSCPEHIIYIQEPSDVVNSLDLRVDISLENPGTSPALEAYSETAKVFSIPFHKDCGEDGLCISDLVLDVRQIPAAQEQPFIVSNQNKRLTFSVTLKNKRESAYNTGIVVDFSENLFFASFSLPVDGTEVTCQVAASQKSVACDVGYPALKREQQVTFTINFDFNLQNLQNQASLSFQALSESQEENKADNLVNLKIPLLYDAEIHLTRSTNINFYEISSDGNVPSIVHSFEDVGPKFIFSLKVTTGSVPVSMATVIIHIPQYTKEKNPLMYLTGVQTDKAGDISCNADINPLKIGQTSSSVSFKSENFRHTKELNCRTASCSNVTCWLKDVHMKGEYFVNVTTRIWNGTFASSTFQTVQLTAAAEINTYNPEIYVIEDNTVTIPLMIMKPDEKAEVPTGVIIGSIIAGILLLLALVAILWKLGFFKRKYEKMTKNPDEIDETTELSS
T1 sequence (P05556 21-798): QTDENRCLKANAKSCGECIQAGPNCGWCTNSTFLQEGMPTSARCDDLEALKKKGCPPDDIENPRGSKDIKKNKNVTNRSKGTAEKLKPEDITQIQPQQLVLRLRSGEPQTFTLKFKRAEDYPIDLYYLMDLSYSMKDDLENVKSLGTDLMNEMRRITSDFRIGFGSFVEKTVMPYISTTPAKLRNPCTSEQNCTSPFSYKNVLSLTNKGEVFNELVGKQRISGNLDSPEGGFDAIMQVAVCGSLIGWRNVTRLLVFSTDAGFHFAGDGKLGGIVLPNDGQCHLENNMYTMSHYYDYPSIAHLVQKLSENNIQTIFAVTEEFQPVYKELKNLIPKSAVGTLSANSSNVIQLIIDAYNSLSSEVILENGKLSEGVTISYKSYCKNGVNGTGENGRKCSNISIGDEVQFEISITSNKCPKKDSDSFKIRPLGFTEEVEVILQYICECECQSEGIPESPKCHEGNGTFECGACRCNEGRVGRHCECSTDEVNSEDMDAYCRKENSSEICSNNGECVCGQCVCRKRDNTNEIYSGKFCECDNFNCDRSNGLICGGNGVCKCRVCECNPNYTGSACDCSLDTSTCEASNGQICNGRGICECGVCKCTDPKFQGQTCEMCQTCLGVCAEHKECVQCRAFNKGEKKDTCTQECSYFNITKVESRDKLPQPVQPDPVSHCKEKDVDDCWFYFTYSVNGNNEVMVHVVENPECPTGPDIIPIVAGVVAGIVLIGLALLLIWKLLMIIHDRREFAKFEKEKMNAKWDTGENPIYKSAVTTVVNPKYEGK

Row | Structure (SMILES) | IC50 [µM]
1 | COc1ccccc1CNC(=O)NC[C@H](NC(=O)c1c(Cl)cccc1Cl)C(=O)O [KZ-1-14, (S)-2-(2,6-dichlorobenzamido)-3-(3-(2-methoxybenzyl)ureido)propanoic acid] | 10 to 100
2 | CC(CC12CC3CC(CC(C3)C1)C2)NC(=O)NC[C@H](NC(=O)c1c(Cl)cccc1Cl)C(=O)O (stereo partly drawn) [A2-155, (2S)-3-(3-(1-(adamantan-1-yl)propan-2-yl)ureido)-2-(2,6-dichlorobenzamido)propanoic acid] | 10 to 100
3 | CC(NC(=O)NC[C@H](NC(=O)c1c(Cl)cccc1Cl)C(=O)O)C12CC3CC(CC(C3)C1)C2 (stereo partly drawn) [A2-132, (2S)-3-(3-(1-(adamantan-1-yl)ethyl)ureido)-2-(2,6-dichlorobenzamido)propanoic acid] | 10 to 100
4 | O=C(NC[C@H](NC(=O)c1c(Cl)cccc1Cl)C(=O)O)N[C@H]1CCc2ccccc21 [A2-86, (S)-2-(2,6-dichlorobenzamido)-3-(3-((S)-2,3-dihydro-1H-inden-1-yl)ureido)propanoic acid] | 10 to 100
5 | CC1(C)C2CCC(CNC(=O)NC[C@H](NC(=O)c3c(Cl)cccc3Cl)C(=O)O)C1C2 (stereo partly shown) [A2-173] | 10 to 100
6 | O=C(NCc1cc(F)cc(F)c1)NC[C@H](NC(=O)c1c(Cl)cccc1Cl)C(=O)O [KZ-1-32, (S)-2-(2,6-dichlorobenzamido)-3-(3-(3,5-difluorobenzyl)ureido)propanoic acid] | > 100
7 | O=C(NCc1ccccc1Cl)NC[C@H](NC(=O)c1c(Cl)cccc1Cl)C(=O)O [KZ-1-18, (S)-3-(3-(2-chlorobenzyl)ureido)-2-(2,6-dichlorobenzamido)propanoic acid] | 10 to 100
8 | CC(NC(=O)NC[C@H](NC(=O)c1c(Cl)cccc1Cl)C(=O)O)C12CC3CC(CC(O)(C3)C1)C2 (stereo partly drawn) [A2-152, (2S)-2-(2,6-dichlorobenzamido)-3-(3-(1-(3-hydroxyadamantan-1-yl)ethyl)ureido)propanoic acid] | 10 to 100
9 | Cc1cccc(Cl)c1C(=O)N[C@@H](CNC(=O)NCc1ccccc1)C(=O)O [A2-35, (S)-3-(3-benzylureido)-2-(2-chloro-6-methylbenzamido)propanoic acid] | 10 to 100
10 | O=C(NC[C@H](NC(=O)c1c(Cl)cccc1Cl)C(=O)O)OCc1ccccc1 [A2-72, (S)-3-(((benzyloxy)carbonyl)amino)-2-(2,6-dichlorobenzamido)propanoic acid] | > 100
11 | C[C@@H]1[C@H]2C[C@@H](C[C@H]1NC(=O)NC[C@H](NC(=O)c1c(Cl)cccc1Cl)C(=O)O)C2(C)C [A2-170, (S)-2-(2,6-dichlorobenzamido)-3-(3-((1R,2R,3R,5S)-2,6,6-trimethylbicyclo[3.1.1]heptan-3-yl)ureido)propanoic acid] | 10 to 100
12 | O=C(NC[C@H](NC(=O)c1c(Cl)cccc1Cl)C(=O)O)NC1CCC2(CCCCC2)CC1 [A2-179, (S)-2-(2,6-dichlorobenzamido)-3-(3-(spiro[5.5]undecan-3-yl)ureido)propanoic acid] | 10 to 100
13 | O=C(NC[C@H](NC(=O)c1c(Cl)cccc1Cl)C(=O)O)NCC12CC3CC(CC(Cl)(C3)C1)C2 [A2-156, (S)-3-(3-((3-chloroadamantan-1-yl)methyl)ureido)-2-(2,6-dichlorobenzamido)propanoic acid] | 10 to 100
14 | Cc1cc(C)c(C(=O)N[C@@H](CNC(=O)NCc2ccccc2)C(=O)O)c(C)c1 [A2-26, (S)-3-(3-benzylureido)-2-(2,4,6-trimethylbenzamido)propanoic acid] | 10 to 100
15 | O=C(NC[C@H](NC(=O)c1c(Cl)cccc1Cl)C(=O)O)NC1Cc2ccccc2C1 [A2-84, (S)-2-(2,6-dichlorobenzamido)-3-(3-(2,3-dihydro-1H-inden-2-yl)ureido)propanoic acid] | 10 to 100

Target: T1, integrin α2β1
Assay: Cell adhesion assay, adhesion to collagen in vitro (cell type not stated for these values)
Assay type: cell-based
Set-up: endogenous in cells
Details: compared with c15
Experimental: as §1

Row | Structure (SMILES) | fold less potent than c15 in a cell adhesion assay [fold]
16 | O=C(NCc1ccccc1)NC[C@H](NC(=O)c1c(Cl)cccc1Cl)C(=O)O [A2-4, (S)-3-(3-benzylureido)-2-(2,6-dichlorobenzamido)propanoic acid] | 2
